Patent US4891432A, “Phenoxy imidazole compound” (Yamanouchi Pharmaceutical Co., Ltd., priority 1986, dated 1990)
Where two headings read alike, the source gives them in different places.

Tests used:
Ehrlich solid tumor [1] = experiment: Test 5: Antitumor test against Ehrlich solid tumor; assay type: in vivo, ddY/SLC mice; conditions: intraperitoneal (1 to 9 days), day 21
Protocol: Antitumor test against Ehrlich solid tumor
Ehrlich tumor cells, 3×10^6, on Day 6 after intraperitoneal transplantation to ddY/SLC mice, were subcutaneously transplanted in the left abdomen of ddY/SLC mice (5 week age, male)--10 mice to a group (37 mice for the control group). The active component was intraperitoneally administered in a definite dose 24 hours after the transplantation, according to the scheduled shown in Table 4. The tumor growth inhibition was assessed by measuring the weight of each tumor on the 21th day after transplantation, and determining the tumor growth inhibition rate of the active component-administered group to the control group, according to the following equation.
(§1) Growth inhibition rate (%)=(C-T)/C×100
(§2) T: mean tumor weight in the active-component-administered group
(§3) C: mean tumor weight on the control group

[2] = test system: mouse mammalian MM-46 tumor; experiment: Test 3: Test against mouse mammalian MM-46 tumor; assay type: in vivo, C3H/He/SLC mice
Protocol: Test against mouse mammalian MM-46 tumor
MM-46 tumor cells, 1×10^6, on day 6 after intraperitonal transplantation to C3 H/He/SLC mice, were intraperitoneally transplanted to C3H/He/SlC mice (6 week age, male)--10 mice to a group. The active component was orally administered in a definite dose 24 hours after the transplantation according to the schedule shown in Table 2. The tumor growth inhibition was evaluated as the percentage of the median survival day of the administered group versus that of the control group, according to the following equation.
T: median survival day of the administered group
C: median survival day of the control group

[3] = test system: mouse leukemia L1210 cells; experiment: Effectiveness against mouse leukemia L1210 cells (in vitro test), cytotoxicity by trypan blue dye exclusion; assay type: cell-based; conditions: Mus musculus, read-out: IC50 (mean dose producing 50%-killing of tumor cells)
Protocol: Effectiveness against mouse leukemia L1210 cells (in vitro test)
A suspension of cells in culture medium was transferred into wells in a microplate in an amount of 1×10^5 L1210-cells/well. Test sample diluted with a culture medium was added to the suspension in each well, and the mixture was incubated on the medium at 37° C. for 3 days in an atmosphere of air containing 5% carbon dioxide.
Thereafter, the incubated cells were recovered from the microplate and the number of live cells was counted by the dye exclusion test using a 0.5% solution of trypan blue and by using a hemocytometer.

ddY mice = experiment: Toxicity test (acute toxicity); assay type: in vivo; conditions: intraperitoneal, up to a dose of 800 mg/kg
Protocol: (§4) The active component (the Compound of Example 45) was orally administered to ddY mice (mean body weight of 30 g, male). […] Accordingly, the acute toxicity of the Compound is greater than 1,600 mg/kg (oral administration).
(§5) Accordingly, the acute toxicity of the Compound in the case of intraperitoneal administration is greater than 800 mg/kg.

[4] = Toxicity test (acute toxicity); assay type: in vivo; conditions: mouse, in vivo, male ddY mice
Protocol: as §4, §5

mouse M5076 solid tumor = experiment: Test 4: Anti-tumor test against mouse M5076 solid tumor; assay type: in vivo, BDF1/SLC mice; conditions: p.o. (1-9 days), day 14
Protocol: Anti-tumor test against mouse M5076 solid tumor
M5076 Tumor cells, 1×10^6, on day 14 after intraperitoneal transplantation to C57BL16/cRJ mice, were subcutaneously transplanted to the left abdomen of BDF1/SLC mice (8 week age, male)--10 mice to a group (20 mice for the control group). The active component was orally administered in a definite dose 24 hours after the transplantation according to the schedule shown in Table 3. The tumor growth inhibition was assessed by measuring the weight of each tumor on days 14 after the transplantation, and determining the tumor growth inhibition rate of the active component-administered group to the control group, according to the following equation.
as §1, §2, §3

Ehrlich solid tumor [5] = experiment: Test 2: Anti-tumor test against Ehrlich solid tumor; assay type: in vivo, ddY/SLC mice; conditions: Mus musculus, Ehrlich, ip, 504 h, read-out: Growth Inhibition Rate
Protocol: Anti-tumor test against Ehrlich solid tumor
Ehrlich tumor cells, 2×10^6, on Day 7 after intraperitoneal transplantation to ddY/SLC mice, were subcutaneously transplanted in the left abdomen of ddY/SLC mice (5week age, male)--10 to a group. The active component was intraperitoneally administered in a definite dose 24 hours after the transplantation. (administration: once per one day; 1 through 9 days)
as §1
T: mean tumor weight in the active component-administered group
c: mean tumor weight in the control group

In the case of `CC(C)(CCCCOc1ccc(OCCCCCn2ccnc2)cc1)C(=O)O` [Example 45, 6-[p-[5-(1-imidazolyl)pentyloxy]phenoxy]-2,2-dimethylhexanoic acid], the “Growth Inhibition Rate” value (Ehrlich solid tumor [1]; 50 mg/kg) is reported as 29.9%, the “Weight of Tumor” value (Ehrlich solid tumor [1]; 50 mg/kg) is reported as 2.81 ± 1.55 g and the “Growth Inhibition Rate” value (Ehrlich solid tumor [1]; 100 mg/kg) is reported as 49.1%. For the same compound, the “Weight of Tumor” value (Ehrlich solid tumor [1]; 100 mg/kg) was 2.04 ± 1.26 g, the “Growth Inhibition Rate” value (Ehrlich solid tumor [1]; 200 mg/kg) was 63.6% and the “Weight of Tumor” value (Ehrlich solid tumor [1]; 200 mg/kg) was 1.46 ± 0.50 g. For the same compound, the “Growth Inhibition Rate” value (Ehrlich solid tumor [1]; 400 mg/kg) was 57.6%, the “Weight of Tumor” value (Ehrlich solid tumor [1]; 400 mg/kg) was 1.70 ± 0.60 g and the “Median Survival Day” value ([2]; 100 mg/kg, p.o. (1-6 days)) was 8.0 days. The “No. of 20-day Survivors” value ([2]; 100 mg/kg, p.o. (1-6 days)) was 0/10, the “T/C (median survival)” value ([2]; 100 mg/kg, p.o. (1-6 days)) was 114.3% and the “Median Survival Day” value ([2]; 200 mg/kg, p.o. (1-6 days)) was 8.0 days. For the same compound, the “No. of 20-day Survivors” value ([2]; 200 mg/kg, p.o. (1-6 days)) was 0/10, the “T/C (median survival)” value ([2]; 200 mg/kg, p.o. (1-6 days)) was 114.3% and the “Median Survival Day” value ([2]; 400 mg/kg, p.o. (1-6 days)) was 8.0 days. The “No. of 20-day Survivors” value ([2]; 400 mg/kg, p.o. (1-6 days)) was 0/10, the “T/C (median survival)” value ([2]; 400 mg/kg, p.o. (1-6 days)) was 114.3% and the “Median Survival Day” value ([2]; 800 mg/kg, p.o. (1-8 days)) was 10.0 days. The “No. of 20-day Survivors” value ([2]; 800 mg/kg, p.o. (1-8 days)) was 0/10, the “T/C (median survival)” value ([2]; 800 mg/kg, p.o. (1-8 days)) was 142.9% and the IC50 ([3]; 72 h, L1210 cells, 3 days, 37° C.) was 42.5 µM. The death (ddY mice) was “no example of death was noted”, the LD50 ([4]; ip, intraperitoneal administration) was greater than 800 mg/kg and the LD50 ([4]; oral administration) was greater than 1600 mg/kg. For the same compound, the “Growth Inhibition Rate” value (mouse M5076 solid tumor; 100 mg/kg) was 13.1%, the “Weight of Tumor” value (mouse M5076 solid tumor; 100 mg/kg) was 0.53 ± 0.09 g and the “Growth Inhibition Rate” value (mouse M5076 solid tumor; 200 mg/kg) was 19.7%. For the same compound, the “Weight of Tumor” value (mouse M5076 solid tumor; 200 mg/kg) was 0.49 ± 0.14 g, the “Growth Inhibition Rate” value (mouse M5076 solid tumor; 400 mg/kg) was 11.5% and the “Weight of Tumor” value (mouse M5076 solid tumor; 400 mg/kg) was 0.54 ± 0.12 g. For the same compound, the “Growth Inhibition Rate” value (mouse M5076 solid tumor; 800 mg/kg) was 23.0% and the “Weight of Tumor” value (mouse M5076 solid tumor; 800 mg/kg) was 0.47 ± 0.09 g.

In the case of `O=c1[nH]c(=O)n(C2CCCO2)cc1F` (stereo not drawn) [Tetrahydrofuryl-5-fluorouracil, reference compound], the “Median Survival Day” value ([2]; 100 mg/kg, p.o. (1-6 days)) is reported as 6.0 days, the “No. of 20-day Survivors” value ([2]; 100 mg/kg, p.o. (1-6 days)) is reported as 0/10 and the “T/C (median survival)” value ([2]; 100 mg/kg, p.o. (1-6 days)) is reported as 85.7%. The “Median Survival Day” value ([2]; 200 mg/kg, p.o. (1-6 days)) was 7.0 days, the “No. of 20-day Survivors” value ([2]; 200 mg/kg, p.o. (1-6 days)) was 0/10 and the “T/C (median survival)” value ([2]; 200 mg/kg, p.o. (1-6 days)) was 100%. The “Growth Inhibition Rate” value (mouse M5076 solid tumor; 100 mg/kg) was 14.8%, the “Weight of Tumor” value (mouse M5076 solid tumor; 100 mg/kg) was 0.52 ± 0.19 g and the “Growth Inhibition Rate” value (mouse M5076 solid tumor; 200 mg/kg) was 39.3%. The “Weight of Tumor” value (mouse M5076 solid tumor; 200 mg/kg) was 0.37 ± 0.08 g.

For `O=c1[nH]cc(F)c(=O)[nH]1` [5-Fluorouracil, reference compound], the “Growth Inhibition Rate” value (Ehrlich solid tumor [1]; 12.5 mg/kg) was 36.4%, the “Weight of Tumor” value (Ehrlich solid tumor [1]; 12.5 mg/kg) was 2.55 ± 1.21 g and the “Growth Inhibition Rate” value (Ehrlich solid tumor [1]; 25 mg/kg) was 45.6%. The “Weight of Tumor” value (Ehrlich solid tumor [1]; 25 mg/kg) was 2.18 ± 0.96 g, the inhibition in vivo at 25 mg/kg (Ehrlich solid tumor [5]) was 61% and the IC50 ([3]; L1210, 72 h) was 0.41 µM.
